In US20150352108A1, “AMINO-PYRIMIDINE COMPOUNDS AS INHIBITORS OF TBK1 AND/OR IKK EPSILON” (Alzheimer's Institute of America, priority 2009, published 2015):

Tests used:
IKKε = biological target: T1, IKKε (Homo sapiens, UniProt Q14164); test: In-vitro IKKε kinase assay ([γ33]ATP filter-plate); assay type: biochemical; conditions: text bins; read-out: IC50 for inhibition of the kinase activity of IKKε
T1 construct: His-tag; made in house; host or cells: Sf9 insect cells
T1 sequence (Q14164 1-716): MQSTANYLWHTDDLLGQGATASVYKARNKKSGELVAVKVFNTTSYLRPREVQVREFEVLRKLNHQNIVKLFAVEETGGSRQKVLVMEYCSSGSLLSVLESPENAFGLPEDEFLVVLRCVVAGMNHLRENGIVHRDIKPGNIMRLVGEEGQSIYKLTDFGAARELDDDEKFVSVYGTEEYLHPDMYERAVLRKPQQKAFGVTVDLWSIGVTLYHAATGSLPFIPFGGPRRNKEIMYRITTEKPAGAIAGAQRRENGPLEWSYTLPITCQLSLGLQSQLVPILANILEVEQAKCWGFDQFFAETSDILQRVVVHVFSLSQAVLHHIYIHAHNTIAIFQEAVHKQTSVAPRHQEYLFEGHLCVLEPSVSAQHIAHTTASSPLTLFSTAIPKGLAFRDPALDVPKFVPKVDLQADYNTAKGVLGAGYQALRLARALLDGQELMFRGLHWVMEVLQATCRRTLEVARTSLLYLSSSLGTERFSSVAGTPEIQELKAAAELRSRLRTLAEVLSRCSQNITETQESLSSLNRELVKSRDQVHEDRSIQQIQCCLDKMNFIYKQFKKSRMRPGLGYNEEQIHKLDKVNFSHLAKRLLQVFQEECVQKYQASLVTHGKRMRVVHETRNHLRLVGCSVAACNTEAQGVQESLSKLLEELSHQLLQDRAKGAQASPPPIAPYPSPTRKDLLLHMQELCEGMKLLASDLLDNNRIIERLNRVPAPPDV
In short: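 Phosphorylation of casein or myelin basic protein was counted by P-81 filter capture after 30-45 min reactions stopped with phosphoric acid, with counts normalized to DMSO after background subtraction. ATP was twice Km: 60 μM for TBK1 and 32 μM for IKKε, plus [γ33]ATP. Sf9-expressed His-tag enzymes were used at normal/sensitized levels of 0.1/0.02 μg/ml (TBK1) and 0.1/0.015 μg/ml (IKKε).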

TBK1 = biological target: T2, TBK1 (Homo sapiens, UniProt Q9UHD2); test: In-vitro TBK1 kinase assay ([γ33]ATP filter-plate); assay type: biochemical; conditions: text bins; read-out: IC50 for inhibition of the kinase activity of TBK1
T2 construct: His-tag; made in house; host or cells: Sf9 insect cells
T2 sequence (Q9UHD2 1-729): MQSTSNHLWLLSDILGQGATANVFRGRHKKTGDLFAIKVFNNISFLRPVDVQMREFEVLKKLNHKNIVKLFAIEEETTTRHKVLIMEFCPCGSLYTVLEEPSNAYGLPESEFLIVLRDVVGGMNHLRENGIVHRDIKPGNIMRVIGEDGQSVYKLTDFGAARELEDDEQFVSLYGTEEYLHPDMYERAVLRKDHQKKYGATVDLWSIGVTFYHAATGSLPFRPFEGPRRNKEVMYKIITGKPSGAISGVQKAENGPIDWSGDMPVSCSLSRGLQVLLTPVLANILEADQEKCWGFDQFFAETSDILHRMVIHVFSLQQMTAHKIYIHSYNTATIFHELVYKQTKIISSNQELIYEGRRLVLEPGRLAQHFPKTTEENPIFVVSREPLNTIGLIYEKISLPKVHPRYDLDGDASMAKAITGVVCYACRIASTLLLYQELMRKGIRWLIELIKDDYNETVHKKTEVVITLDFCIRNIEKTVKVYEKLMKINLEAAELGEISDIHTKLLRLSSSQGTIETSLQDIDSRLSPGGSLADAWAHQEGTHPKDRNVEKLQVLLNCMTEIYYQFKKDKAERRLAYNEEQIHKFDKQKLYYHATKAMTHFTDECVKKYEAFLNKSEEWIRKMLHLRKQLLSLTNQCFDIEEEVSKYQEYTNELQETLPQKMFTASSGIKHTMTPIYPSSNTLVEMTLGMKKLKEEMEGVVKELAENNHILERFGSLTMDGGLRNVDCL
Procedure: IKKε enzyme was produced as a His-tag fusion in Sf9 cells and used at a final concentration of […]. TBK1 enzyme was produced as a His-tag fusion in Sf9 cells and used at a final concentration of 0.1 μg/ml. Kinase reactions were carried out in reaction buffer using myelin basic protein (Millipore, Ballerica, Mass.) or casein (Sigma, St. Louis, Mo.) as substrate at an ATP concentration equal to twice the Km,ATP value for each enzyme, corresponding to 32 μM ATP for IKKε and 60 μM ATP for TBK1, in the presence of 0.3 μCi [γ^33]ATP (PerkinElmer, Waltham, Mass.). Final enzyme concentrations were 0.1 or 0.015 μg/ml (IKKε) and 0.1 or 0.02 μg/ml (TBK1), representing “normal” and “sensitized” assay conditions respectively. Test compounds (or DMSO solvent as a control) were added prior to initiation of the reactions. Reactions were terminated after 30-45 minutes by adding 3% phosphoric acid. Terminated reactions were transferred to P-81 cellulose phosphate filterplates (Whatman, Inc., Piscataway, N.J.) and washed with 1% phosphoric acid on a vacuum apparatus. After air drying, scintillant (PerkinElmer, Waltham, Mass.) was added and the plates were read on a PerkinElmer TopCount NXT instrument. Counts were normalized to DMSO controls after background subtraction.

Row | SMILES | IC50 (IKKε) [nM] | IC50 (TBK1) [nM]
1 | N#Cc1cc(-c2ccnc(Nc3ccc(N4CCOCC4)cc3)n2)ccc1OC1CCN(C(=O)CO)C1 (stereo not shown) [Example 96, 2-{[1-(Hydroxyacetyl)pyrrolidin-3-yl]oxy}-5-(2-{[4-(morpholin-4-yl)phenyl]amino}pyrimidin-4-yl)benzonitrile] | < 5 | < 10
2 | COc1ccc(-c2ccnc(Nc3ccc(N4CCOCC4)c(Cl)c3)n2)cc1C#N [Example 98] | < 5 | < 10
3 | CS(=O)(=O)N1CCN(c2ccc(Nc3nccc(-c4ccc(OC5CCOCC5)c(C#N)c4)n3)cc2)CC1 [Example 100, 5-[2-({4-[4-(methylsulfonyl)piperazin-1-yl]phenyl}amino)pyrimidin-4-yl]-2-(tetrahydro-2H-pyran-4-yloxy)benzonitrile] | < 5 | < 10
4 | COc1cc(Nc2nccc(-c3ccc(OC4CCN(C(=O)[C@H](C)O)CC4)c(C#N)c3)n2)ccc1OCCOCCN [Example 105, 5-[2-({4-[2-(2-aminoethoxy)ethoxy]-3-methoxyphenyl}amino)pyrimidin-4-yl]-2-({1-[(2S)-2-hydroxypropanoyl]piperidin-4-yl}oxy)benzonitrile] | 5 to 50 | 10 to 100
5 | COc1ccc(Nc2nccc(-c3ccc(OC(C)C)c(C#N)c3)n2)cc1OC [Example 111, 5-{2-[(3,4-Dimethoxyphenyl)amino]pyrimidin-4-yl}-2-(propan-2-yloxy)benzonitrile] | < 5 | < 10
6 | CC(=O)Nc1ccc(-c2ccnc(Nc3ccc(N4CCOCC4)cc3)n2)cc1C#N [Example 117, N-[2-Cyano-4-(2-{[4-(morpholin-4-yl)phenyl]amino}pyrimidin-4-yl)phenyl]acetamide] | 5 to 50 | 10 to 100
7 | COc1ccc(Nc2nccc(-c3ccc(O)c(C#N)c3)n2)cc1OC [Example 118] | < 5 | < 10
8 | COc1ccc(-c2ccnc(Nc3ccc(N4CCN(C)C(=O)C4)c(OC)c3)n2)cc1C#N [Example 124] | < 5 | < 10
9 | Cc1nnsc1C(=O)Nc1ccc(-c2ccnc(Nc3ccc(N4CCOCC4)cc3)n2)cc1C#N [Example 129, N-[2-cyano-4-(2-{[4-(morpholin-4-yl)phenyl]amino}pyrimidin-4-yl)phenyl]-4-methyl-1,2,3-thiadiazol-5-carboxamide] | < 5 | < 10
10 | COc1cc(Nc2nccc(-c3ccc(OC4CCN(C(C)=O)CC4)c(C#N)c3)n2)ccc1N1CCNC(=O)C1 [Example 134, 2-[(1-Acetylpiperidin-4-yl)oxy]-5-(2-{[3-methoxy-4-(3-oxopiperazin-1-yl)phenyl]amino}pyrimidin-4-yl)benzonitrile] | < 5 | < 10
11 | COc1ccc(Nc2nccc(-c3ccc(NC(C)=O)c(C#N)c3)n2)cc1OC [Example 136, N-(2-Cyano-4-{2-[(3,4-dimethoxyphenyl)amino]pyrimidin-4-yl}phenyl)acetamide] | 5 to 50 | 10 to 100
12 | COc1cc(Nc2nccc(-c3ccc(OC)c(C#N)c3)n2)cc(OCCN2CCOCC2)c1 [Example 138, 2-Methoxy-5-[2-({3-methoxy-5-[2-(morpholin-4-yl)ethoxy]phenyl}amino)pyrimidin-4-yl]benzonitrile] | 5 to 50 | 10 to 100
13 | CC(=O)NCCCOc1ccc(-c2ccnc(Nc3ccc(N4CCOCC4)cc3)n2)cc1C#N [Example 149, N-{3-[2-cyano-4-(2-{[4-(morpholin-4-yl)phenyl]amino}pyrimidin-4-yl)phenoxy]propyl} acetamide] | 5 to 50 | 10 to 100

Other lines, results leading:

Row | IC50 (IKKε) [nM] | IC50 (TBK1) [nM] | SMILES
14 | < 5 | < 10 | N#Cc1cc(-c2ccnc(Nc3ccc(N4CCOCC4)cc3)n2)ccc1NC(=O)C1CC1 [Example 91, N-[2-cyano-4-(2-{[4-(morpholin-4-yl)phenyl]amino}pyrimidin-4-yl)phenyl] cyclopropane-carboxamide]
15 | 5 to 50 | 10 to 100 | N#Cc1cc(-c2ccnc(Nc3ccc(N4CCOCC4)cc3)n2)ccc1OCC1CCCNC1 (stereo not shown) [Example 94]
16 | < 5 | < 10 | COc1ccc(-c2ccnc(Nc3ccc(N4CCCNC(=O)C4)c(OC)c3)n2)cc1C#N [Example 104, 2-Methoxy-5-(2-{[3-methoxy-4-(3-oxo-1,4-diazepan-1-yl)phenyl]amino}pyrimidin-4-yl)benzonitrile]
17 | < 5 | < 10 | CNc1ccc(-c2ccnc(Nc3ccc(OC)c(OC)c3)n2)cc1C#N [Example 107, 5-{2-[(3,4-Dimethoxyphenyl)amino]pyrimidin-4-yl}-2-(methylamino) benzonitrile]
18 | 5 to 50 | < 10 | COc1ccc(-c2ccnc(Nc3cc(CN4CCNC(=O)C4)c(OC)c(OC)c3)n2)cc1C#N [Example 110, 5-[2-({3,4-Dimethoxy-5-[(3-oxopiperazin-1-yl)methyl]phenyl}amino)pyrimidin-4-yl]-2-methoxybenzonitrile]
19 | < 5 | 10 to 100 | COc1ccc(-c2ccnc(Nc3cc(CN(C)CC(=O)N(C)C)c(OC)c(OC)c3)n2)cc1C#N [Example 115, N~2~-(5-{[4-(3-Cyano-4-methoxyphenyl)pyrimidin-2-yl]amino}-2,3-dimethoxybenzyl)-N,N,N~2~- trimethylglycinamide]
20 | 5 to 50 | < 10 | COc1cc(Nc2nccc(-c3ccc(OC4CCN(C(=O)[C@H](C)O)C4)c(C#N)c3)n2)ccc1N1CCOCC1 (stereo partly drawn) [Example 116, 2-({1-[(2S)-2-hydroxypropanoyl]pyrrolidin-3-yl}oxy)-5-(2-{[3-methoxy-4-(morpholin-4-yl)phenyl]amino}pyrimidin-4-yl)benzonitrile]
21 | 5 to 50 | 10 to 100 | CCN1CCN(c2ccc(-c3ccnc(Nc4ccc(N5CCOCC5)cc4)n3)cc2C#N)CC1 [Example 123, 2-(4-Ethylpiperazin-1-yl)-5-(2-{[4-(morpholin-4-yl)phenyl]amino}pyrimidin-4-yl)benzonitrile]
22 | < 5 | < 10 | N#Cc1cc(-c2ccnc(Nc3ccc(N4CCOCC4)cc3)n2)ccc1O [Example 130, 2-Hydroxy-5-(2-{[4-(morpholin-4-yl)phenyl]amino}pyrimidin-4-yl)benzonitrile]
23 | 5 to 50 | < 10 | N#Cc1cc(-c2ccnc(Nc3ccc(N4CCOCC4)cc3)n2)ccc1OC1CNC1 [Example 143, 2-(azetidin-3-yloxy)-5-(2-{[4-(morpholin-4-yl)phenyl]amino}pyrimidin-4-yl)benzonitrile]
